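Dose response: 5 concentrations. Exposure: 48 h. Format: 96-well plates. Endpoint: linear interpolation; highest concentration if not reached. At the GI50, growth is halved. TGI: concentration producing complete growth inhibition.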
Key:
Test in all cases: NCI-60 cell line screen, 48 h
786-0 renal = test system: 786-0 renal
A498 renal = test system: A498 renal
A549 NSCLC = test system: A549 NSCLC
ACHN renal = test system: ACHN renal
BT-549 breast = test system: BT-549 breast
CAKI-1 renal = test system: CAKI-1 renal
CCRF-CEM leukemia = test system: CCRF-CEM leukemia
COLO 205 colon = test system: COLO 205 colon
DU-145 prostate = test system: DU-145 prostate
EKVX NSCLC = test system: EKVX NSCLC
HCC-2998 colon = test system: HCC-2998 colon
HCT-116 colon = test system: HCT-116 colon
HCT-15 colon = test system: HCT-15 colon
HL-60(TB) leukemia = test system: HL-60(TB) leukemia
HOP-62 NSCLC = test system: HOP-62 NSCLC
HOP-92 NSCLC = test system: HOP-92 NSCLC
HS 578T breast = test system: HS 578T breast
HT29 colon = test system: HT29 colon
IGROV1 ovarian = test system: IGROV1 ovarian
KM12 colon = test system: KM12 colon
LOX IMVI melanoma = test system: LOX IMVI melanoma
M14 melanoma = test system: M14 melanoma
MALME-3M melanoma = test system: MALME-3M melanoma
MCF7 breast = test system: MCF7 breast
MDA-MB-231 breast = test system: MDA-MB-231 breast
MDA-MB-435 = test system: MDA-MB-435
MDA-MB-468 breast = test system: MDA-MB-468 breast
MOLT-4 leukemia = test system: MOLT-4 leukemia
NCI-H226 lung = test system: NCI-H226 lung
NCI-H23 lung = test system: NCI-H23 lung
NCI-H522 lung = test system: NCI-H522 lung
NCI/ADR-RES ovarian = test system: NCI/ADR-RES ovarian
OVCAR-3 ovarian = test system: OVCAR-3 ovarian
OVCAR-4 ovarian = test system: OVCAR-4 ovarian
OVCAR-5 ovarian = test system: OVCAR-5 ovarian
OVCAR-8 ovarian = test system: OVCAR-8 ovarian
PC-3 prostate = test system: PC-3 prostate
RPMI-8226 leukemia = test system: RPMI-8226 leukemia
RXF 393 renal = test system: RXF 393 renal
SF-268 CNS = test system: SF-268 CNS
SF-295 CNS = test system: SF-295 CNS
SF-539 CNS = test system: SF-539 CNS
SK-MEL-2 melanoma = test system: SK-MEL-2 melanoma
SK-MEL-28 melanoma = test system: SK-MEL-28 melanoma
SK-MEL-5 melanoma = test system: SK-MEL-5 melanoma
SK-OV-3 ovarian = test system: SK-OV-3 ovarian
SN12C renal = test system: SN12C renal
SNB-19 CNS = test system: SNB-19 CNS
SNB-75 CNS = test system: SNB-75 CNS
SR leukemia = test system: SR leukemia
SW-620 colon = test system: SW-620 colon
T-47D breast = test system: T-47D breast
TK-10 renal = test system: TK-10 renal
U251 CNS = test system: U251 CNS
UACC-257 melanoma = test system: UACC-257 melanoma
UACC-62 melanoma = test system: UACC-62 melanoma
UO-31 renal = test system: UO-31 renal

Nc1cc(-c2c[nH]c3ccc(Br)cc23)nc2cc(-c3c[nH]c4ccccc34)nn12
GI50 (786-0 renal): 1.63 µM | TGI (786-0 renal): 3.54 µM | GI50 (A498 renal): 2.42 µM | TGI (A498 renal): 7.74 µM | GI50 (A549 NSCLC): 2.91 µM | TGI (A549 NSCLC): 11.5 µM | GI50 (ACHN renal): 2.77 µM | TGI (ACHN renal): 9.2 µM | GI50 (BT-549 breast): 9.32 µM | TGI (BT-549 breast): 21.8 µM | GI50 (CAKI-1 renal): 2.2 µM | TGI (CAKI-1 renal): 7.33 µM | GI50 (CCRF-CEM leukemia): 3.05 µM | TGI (CCRF-CEM leukemia): 13.2 µM | GI50 (COLO 205 colon): 1.73 µM | TGI (COLO 205 colon): 3.33 µM | GI50 (DU-145 prostate): 3.88 µM | TGI (DU-145 prostate): 14.4 µM | GI50 (EKVX NSCLC): 2.92 µM | TGI (EKVX NSCLC): 10.9 µM | GI50 (HCC-2998 colon): 1.85 µM | TGI (HCC-2998 colon): 3.61 µM | GI50 (HCT-116 colon): 1.77 µM | TGI (HCT-116 colon): 3.39 µM | GI50 (HCT-15 colon): 1.74 µM | TGI (HCT-15 colon): 3.62 µM | GI50 (HL-60(TB) leukemia): 2.84 µM | TGI (HL-60(TB) leukemia): 12.7 µM | GI50 (HOP-62 NSCLC): 3.52 µM | TGI (HOP-62 NSCLC): 12.2 µM | GI50 (HOP-92 NSCLC): 2.06 µM | TGI (HOP-92 NSCLC): 6.08 µM | GI50 (HS 578T breast): 3.11 µM | TGI (HS 578T breast): 9.62 µM | GI50 (HT29 colon): 1.98 µM | TGI (HT29 colon): 4.08 µM | GI50 (IGROV1 ovarian): 3.55 µM | TGI (IGROV1 ovarian): 14.6 µM | GI50 (KM12 colon): 2.21 µM | TGI (KM12 colon): 5.31 µM | GI50 (LOX IMVI melanoma): 1.69 µM | TGI (LOX IMVI melanoma): 3.07 µM | GI50 (M14 melanoma): 2.09 µM | TGI (M14 melanoma): 5.05 µM | GI50 (MALME-3M melanoma): 1.91 µM | TGI (MALME-3M melanoma): 3.64 µM | GI50 (MCF7 breast): 2.05 µM | TGI (MCF7 breast): 5 µM | GI50 (MDA-MB-231 breast): 1.9 µM | TGI (MDA-MB-231 breast): 3.63 µM | GI50 (MDA-MB-435): 2.95 µM | TGI (MDA-MB-435): 9.98 µM | GI50 (MDA-MB-468 breast): 1.75 µM | TGI (MDA-MB-468 breast): 4.13 µM | GI50 (MOLT-4 leukemia): 2.4 µM | TGI (MOLT-4 leukemia): 6.72 µM | GI50 (NCI-H226 lung): 6.13 µM | TGI (NCI-H226 lung): 41.4 µM | GI50 (NCI-H23 lung): 2.36 µM | TGI (NCI-H23 lung): 6.64 µM | GI50 (NCI-H522 lung): 1.68 µM | TGI (NCI-H522 lung): 3.51 µM | GI50 (NCI/ADR-RES ovarian): 3.33 µM | TGI (NCI/ADR-RES ovarian): 13.3 µM | GI50 (OVCAR-3 ovarian): 3.44 µM | TGI (OVCAR-3 ovarian): 14 µM | GI50 (OVCAR-4 ovarian): 3.97 µM | TGI (OVCAR-4 ovarian): 19 µM | GI50 (OVCAR-5 ovarian): 2.08 µM | TGI (OVCAR-5 ovarian): 5.36 µM | GI50 (OVCAR-8 ovarian): 4.06 µM | TGI (OVCAR-8 ovarian): 18.1 µM | GI50 (PC-3 prostate): 2.57 µM | TGI (PC-3 prostate): 8.4 µM | GI50 (RPMI-8226 leukemia): 2.88 µM | TGI (RPMI-8226 leukemia): 9.09 µM | GI50 (RXF 393 renal): 2.66 µM | TGI (RXF 393 renal): 7.87 µM | GI50 (SF-268 CNS): 3.72 µM | TGI (SF-268 CNS): 18.5 µM | GI50 (SF-295 CNS): 1.9 µM | TGI (SF-295 CNS): 4.01 µM | GI50 (SF-539 CNS): 1.74 µM | TGI (SF-539 CNS): 3.38 µM | GI50 (SK-MEL-2 melanoma): 2.44 µM | TGI (SK-MEL-2 melanoma): 7.13 µM | GI50 (SK-MEL-28 melanoma): 2.23 µM | TGI (SK-MEL-28 melanoma): 5.71 µM | GI50 (SK-MEL-5 melanoma): 2.7 µM | TGI (SK-MEL-5 melanoma): 7.62 µM | GI50 (SK-OV-3 ovarian): 7.75 µM | TGI (SK-OV-3 ovarian): 21 µM | GI50 (SN12C renal): 4.03 µM | TGI (SN12C renal): 16.4 µM | GI50 (SNB-19 CNS): 3.67 µM | TGI (SNB-19 CNS): 14.1 µM | GI50 (SNB-75 CNS): 2.17 µM | TGI (SNB-75 CNS): 11.3 µM | GI50 (SR leukemia): 2.23 µM | TGI (SR leukemia): > 100 µM | GI50 (SW-620 colon): 1.87 µM | TGI (SW-620 colon): 3.7 µM | GI50 (T-47D breast): 3.15 µM | TGI (T-47D breast): 20.3 µM | GI50 (TK-10 renal): 2.56 µM | TGI (TK-10 renal): 12 µM | GI50 (U251 CNS): 2 µM | TGI (U251 CNS): 4.57 µM | GI50 (UACC-257 melanoma): 3.86 µM | TGI (UACC-257 melanoma): 15.1 µM | GI50 (UACC-62 melanoma): 1.88 µM | TGI (UACC-62 melanoma): 4.35 µM | GI50 (UO-31 renal): 2.74 µM | TGI (UO-31 renal): 11.8 µM
